In patent US11364220B2, “Compounds and methods for inhibiting CPY26 enzymes” (Queen's University at Kingston, priority 2016, dated 2022):
Where two headings read alike, the source gives them in different places.

What was measured:
CYP26A1 = CYP26A1 (Homo sapiens (Human), UniProt O43174); assay: Cell-based inhibitor assay, [H]-RA metabolism in CYP26A1 stably transfected HeLa cells; conditions: for IC50: CYP26A1 transfected HeLa cells, 3 hours at 37° C., inhibition of all trans-RA metabolism, read-out: IC50 26A1; for inhibition of CYP26A1-mediated RA metabolism compared with ketoconazole (in words): see IC50 values in Table 2
CYP26A1, sequence (O43174 whole entry, species assumed): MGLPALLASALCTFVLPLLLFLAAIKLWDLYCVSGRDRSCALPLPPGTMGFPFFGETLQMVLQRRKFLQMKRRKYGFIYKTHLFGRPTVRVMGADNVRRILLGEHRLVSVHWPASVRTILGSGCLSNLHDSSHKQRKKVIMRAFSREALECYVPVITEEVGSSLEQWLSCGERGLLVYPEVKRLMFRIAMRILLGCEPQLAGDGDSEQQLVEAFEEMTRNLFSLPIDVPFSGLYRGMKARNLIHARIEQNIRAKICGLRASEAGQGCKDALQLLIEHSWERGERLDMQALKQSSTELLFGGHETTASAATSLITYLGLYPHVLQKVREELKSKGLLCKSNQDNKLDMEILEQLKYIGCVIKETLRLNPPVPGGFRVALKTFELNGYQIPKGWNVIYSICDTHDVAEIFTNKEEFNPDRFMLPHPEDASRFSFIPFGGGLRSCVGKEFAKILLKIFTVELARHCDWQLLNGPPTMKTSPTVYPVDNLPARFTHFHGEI
Method: (§1) CYP26A1 or CYP26B1 stably transfected HeLa cells were maintained in Minimum Essential Medium (MEM) containing 10% fetal bovine serum (FBS) and 100 μg/mL hygromycin. Exponentially growing cells were harvested by incubation in trypsin. Cells were then collected and re-plated in 48-well culture plates at 5×10^5 cells in 0.2 mL of culture medium containing 0.05 μCi [H]-RA in the presence or absence of increasing concentrations of a test compound. The test compounds were diluted in dimethyl sulfoxide (DMSO) and then added in duplicate to wells at 0.01, 0.1, 1, 10 and 100 μM final concentration. […] Cells were incubated for 3 hours at 37° C. Retinoids were then extracted using the procedure of Bligh, et al., (1959), Canadian Journal of Biochemistry 37, 911-917, which was modified by using dichloromethane instead of chloroform. Each sample's water soluble radioactivity level was quantified using a β-scintillation counter (using Ecolume scintillation fluid, available from MP Biomedicals of Solon, Ohio, USA).

CYP26B1 = CYP26B1 (Homo sapiens (Human), UniProt Q9NR63); assay: Cell-based inhibitor assay, [H]-RA metabolism in CYP26B1 stably transfected HeLa cells; conditions: for IC50: read-out: IC50 26B1
CYP26B1, sequence (Q9NR63 whole entry, species assumed): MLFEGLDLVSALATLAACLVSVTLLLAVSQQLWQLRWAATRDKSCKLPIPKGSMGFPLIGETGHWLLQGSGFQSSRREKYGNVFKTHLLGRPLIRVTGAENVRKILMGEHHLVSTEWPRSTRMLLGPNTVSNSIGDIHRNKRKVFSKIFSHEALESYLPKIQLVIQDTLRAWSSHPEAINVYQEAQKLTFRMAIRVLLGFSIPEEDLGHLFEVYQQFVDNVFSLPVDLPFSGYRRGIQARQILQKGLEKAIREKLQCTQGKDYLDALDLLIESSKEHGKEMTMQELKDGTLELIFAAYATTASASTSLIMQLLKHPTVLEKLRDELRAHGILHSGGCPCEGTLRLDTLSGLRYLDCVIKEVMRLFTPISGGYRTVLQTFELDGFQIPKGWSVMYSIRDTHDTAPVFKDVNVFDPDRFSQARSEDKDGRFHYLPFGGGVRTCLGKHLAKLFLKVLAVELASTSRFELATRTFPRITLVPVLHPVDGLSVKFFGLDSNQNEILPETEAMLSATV
Method: as §1

[1] = test system: RA sensitive reporter construct pCYP26A1-luc in MCF-7 cells; assay: Retinoid activity assay, RA sensitive pCYP26A1-luc reporter in MCF-7 cells; assay type: cell-based; conditions: 24 hours, firefly relative to Renilla luciferase
Description: This retinoid activity assay measures the ability of test compounds to induce expression of a transiently transfected RA sensitive reporter construct. In this assay, MCF-7 cells are transfected with a construct comprising an upstream promoter of the CYP26A1 gene containing 2 RA response elements driving expression of firefly luciferase (pCYP26A1-luc). Since CYP26A1 is highly inducible by RA in these cells, this construct serves as a sensitive reporter of retinoid-like transcriptional activity.
MCF-7 cells were maintained in RPMI-1640 medium containing 10% FBS. Exponentially growing cells were harvested by incubation in trypsin. Cells were then collected and plated in 24-well plates at 50,000 cells/well. Once cells reached 80-90% confluence (e.g., the next day), cells were transfected with two plasmids. The first plasmid was CYP26A1-luc construct (375 ng). The second plasmid was a control plasmid comprising the Renilla luciferase gene driven by constitutive thymidine kinase promoter (pRL-tk) (25 ng). Transfection was performed using FuGene 6 transfection reagent (Promega) with a 1:3 ratio of DNA:FuGene. 24 hours after transfection, cells were treated with test compounds diluted in DMSO in triplicate at 0.1, 1 and 10 μM final concentrations. As a positive control for reporter activation, cells were also treated with RA diluted in DMSO at the same concentrations listed above. DMSO treatment alone served as a negative control. After 24 hours of treatment, cells were harvested in passive lysis buffer (Promega) and luciferase activity in cell lysates were read using a luminometer. Data are expressed as the activity of firefly luciferase relative to Renilla luciferase (see Table 3). For CYP26A1 inhibitor compounds, no activation of the reporter was detected, while the related retinoid-like compound induces luciferase expression.

[2] = CYP26B1 transfected HeLa cells, 3 hours at 37° C., inhibition of all trans-RA metabolism

Compound | IC50 (CYP26A1) | IC50 (CYP26B1; [2]) | Luciferase Activity RLU Avg ([1]; 0.1 μM) | Luciferase Activity RLU Avg ([1]; 1 μM) | Luciferase Activity RLU Avg ([1]; 10 μM) | inhibitory activity towards CYP26A1 (in words) (CYP26A1) | inhibition of CYP26A1-mediated RA metabolism compared with ketoconazole (in words) (CYP26A1) | inhibition of CYP26B1 enzyme (in words) (CYP26B1) | IC50 (CYP26B1)
C=C(Cc1ccc(NS(=O)(=O)c2ccc3c(c2)C(C)(C)CCC3(C)C)cc1F)OC [Cmpd 09A] | 80.5 µM | – | – | – | – | – | – | – | –
CN(C(=O)c1ccc2c(c1)C(C)(C)CCC2(C)C)c1ccc(CC(=O)O)cc1 [Cmpd 03] | > 100 µM | 65.4 µM | 0.0041 RLU | 0.0039 RLU | 0.005 RLU | – | – | – | –
Cc1cc2c(cc1S(=O)(=O)Nc1ccc(C(C(=O)O)C(C)C)cc1)C(C)(C)CCC2(C)C (stereo not drawn) [Cmpd 19] | 0.741 µM | > 100 µM | 0.0244 RLU | 0.019 RLU | 0.0076 RLU | selective inhibitory activity towards CYP26A1 | comparable to or better than ketoconazole | None of the above compounds inhibited the CYP26B1 enzyme | –
CC1(C)CCC(C)(C)c2cc(S(=O)(=O)Nc3ccc(CC(=O)O)cc3)ccc21 [Cmpd 04] | 1.14 µM | 18.9 µM | 0.0046 RLU | 0.0035 RLU | – | selective inhibitory activity towards CYP26A1 | comparable to or better than ketoconazole | None of the above compounds inhibited the CYP26B1 enzyme | –
Cc1cc2c(cc1C(=O)Nc1ccc(C(C)(C)C(=O)O)cc1)C(C)(C)CCC2(C)C [Cmpd 16] | 1.77 µM | 11.9 µM | 0.166 RLU | 0.183 RLU | 0.155 RLU | selective inhibitory activity towards CYP26A1 | comparable to or better than ketoconazole | None of the above compounds inhibited the CYP26B1 enzyme | –
CC1(C)CCC(C)(C)c2cc(S(=O)(=O)Nc3ccc(CC(=O)O)c(F)c3)ccc21 [Cmpd 09] | 2.2 µM | 14.2 µM | 0.0018 RLU | 0.0017 RLU | 0.0012 RLU | – | – | – | –
Cc1cc2c(cc1S(=O)(=O)Nc1ccc(C(=O)O)cc1)C(C)(C)CCC2(C)C [Cmpd 14] | 28.4 µM | > 100 µM | 0.111 RLU | 0.125 RLU | 0.134 RLU | – | – | – | –
Cc1cc(S(=O)(=O)Nc2ccc(CC(=O)O)cc2)cc2c1OC(C)(C)CC2(C)C [Cmpd 21] | 1.9 µM | – | – | – | – | selective inhibitory activity towards CYP26A1 | comparable to or better than ketoconazole | None of the above compounds inhibited the CYP26B1 enzyme | 21.8 µM
Cc1cc2c(cc1C(=O)Nc1ccc(CC(=O)O)cc1)C(C)(C)CCC2(C)C [Cmpd 02] | 0.83 µM | 2.06 µM | 0.004 RLU | 0.0042 RLU | 0.0066 RLU | selective inhibitory activity towards CYP26A1 | comparable to or better than ketoconazole | None of the above compounds inhibited the CYP26B1 enzyme | –
Cc1cc2c(cc1S(=O)(=O)Nc1ccc(CC(=O)O)cc1)C(C)(C)CCC2(C)C [Cmpd 07] | – | – | 0.0016 RLU | 0.0019 RLU | 0.0011 RLU | – | – | – | –
CC1(C)CCC(C)(C)c2cc(C(=O)Nc3ccc(CC(=O)O)cc3)ccc21 [Cmpd 01] | 5.66 µM | 8.81 µM | 0.0041 RLU | 0.0053 RLU | 0.0077 RLU | – | – | – | –
CC(C)c1cc2c(cc1C(=O)Nc1ccc(CC(=O)O)cc1)C(C)(C)CCC2(C)C [Cmpd 06] | 1.29 µM | 42.3 µM | 0.0021 RLU | 0.002 RLU | 0.0018 RLU | selective inhibitory activity towards CYP26A1 | comparable to or better than ketoconazole | None of the above compounds inhibited the CYP26B1 enzyme | –
CCC(CC)(C(=O)O)c1ccc(NS(=O)(=O)c2ccc3c(c2)C(C)(C)CCC3(C)C)cc1 [Cmpd 17] | 38.7 µM | 0.29 µM | 0.023 RLU | 0.026 RLU | 0.038 RLU | – | – | – | –
Cc1cc2c(cc1S(=O)(=O)Nc1ccc(C3(C(=O)O)CC3)cc1)C(C)(C)CCC2(C)C [Cmpd 13] | 6.2 µM | > 100 µM | 0.113 RLU | 0.07 RLU | 0.04 RLU | – | – | – | –
CC1(C)CCOc2ccc(C(=O)Nc3ccc(CC(=O)O)cc3)cc21 [Cmpd 05] | 39.7 µM | 11.5 µM | – | – | – | – | – | – | –
Cc1cc2c(c(C)c1C(=O)Nc1ccc(CC(=O)O)cc1)C(C)(C)CCC2(C)C [Cmpd 10] | 8.23 µM | 0.55 µM | 0.073 RLU | 0.076 RLU | 0.084 RLU | – | – | – | –
C=C(Cc1ccc(NS(=O)(=O)c2ccc3c(c2)C(C)(C)CCC3(C)C)cc1)OC [Cmpd 04A] | 14 µM | – | – | – | – | – | – | – | –
C=C(Cc1ccc(NS(=O)(=O)c2cc3c(cc2Br)C(C)(C)CCC3(C)C)cc1)OC [Cmpd 04B] | 8.24 µM | – | – | – | – | – | – | – | –
CCC(CC)(C(=O)O)c1ccc(NS(=O)(=O)c2cc3c(cc2C)C(C)(C)CCC3(C)C)cc1 [Cmpd 18] | > 1000 µM | 9.07 µM | 0.0683 RLU | 0.0597 RLU | 0.05 RLU | – | – | – | –
CC1(C)CCC(C)(C)c2cc(NC(=O)c3ccc(CC(=O)O)cc3)ccc21 [Cmpd 08] | 3.17 µM | 19.2 µM | 0.0025 RLU | 0.0019 RLU | 0.0028 RLU | – | – | – | –
CC(C)c1cc2c(cc1S(=O)(=O)Nc1ccc(CC(=O)O)cc1)C(C)(C)CCC2(C)C [Cmpd 11] | 20 µM | > 1000 µM | 0.064 RLU | 0.062 RLU | 0.044 RLU | – | – | – | –
